According to the NIST ThermoML archive (doi:10.1021/je050420+):
Numbers after ± are expanded uncertainties.

How the values were obtained:
[1] = Liquid; for mass density / speed of sound: 298.15 K, 101.33 kPa
[2] = refractive index (Na D-line) (dimensionless); conditions: 298.15 K; 101.33 kPa; Liquid; Standard Abbe refractometry
[3] = xn = mol fraction of the nth substance listed; conditions: 298.15 K, 101 kPa, Liquid
[4] = Ebulliometric method (Recirculating still)

Compound: CCOC(C)=O [ethyl acetate]
- mass density [1]: 894.3 ± 0.2 kg/m3
- speed of sound [1]: 1139.6 ± 1.6 m/s
- Normal boiling temperature [1]: 77.00 ± 0.2 °C
- refractive index [2]: 1.36978 ± 0.00072

Compound: CC(C)CO [2-methyl-1-propanol]
- mass density [1]: 797.8 ± 0.6 kg/m3
- speed of sound [1]: 1186.4 ± 1.7 m/s
- Normal boiling temperature [1, 4]: 107.78 ± 0.2 °C
- refractive index [2]: 1.39366 ± 0.00073

Compound: CCC(C)CO (stereo not given) [2-methyl-1-butanol] + CCOC(C)=O
- mass density ([3]; x2 = 0.05): 817.8 ± 0.6 kg/m3
- mass density ([3]; x2 = 0.099): 820.9 ± 0.6 kg/m3
- mass density ([3]; x2 = 0.15): 824.2 ± 0.5 kg/m3
- mass density ([3]; x2 = 0.2): 827.5 ± 0.5 kg/m3
- mass density ([3]; x2 = 0.25): 830.9 ± 0.5 kg/m3
- mass density ([3]; x2 = 0.3): 834.4 ± 0.5 kg/m3
- mass density ([3]; x2 = 0.349): 838 ± 0.5 kg/m3
- mass density ([3]; x2 = 0.399): 841.7 ± 0.5 kg/m3
- mass density ([3]; x2 = 0.451): 845.6 ± 0.5 kg/m3
- mass density ([3]; x2 = 0.499): 849.4 ± 0.5 kg/m3
- mass density ([3]; x2 = 0.549): 853.3 ± 0.5 kg/m3
- mass density ([3]; x2 = 0.598): 857.3 ± 0.5 kg/m3
- mass density ([3]; x2 = 0.65): 861.6 ± 0.5 kg/m3
- mass density ([3]; x2 = 0.699): 865.8 ± 0.5 kg/m3
- mass density ([3]; x2 = 0.75): 870.2 ± 0.5 kg/m3
- mass density ([3]; x2 = 0.793): 874.2 ± 0.5 kg/m3
- mass density ([3]; x2 = 0.846): 879.1 ± 0.5 kg/m3
- mass density ([3]; x2 = 0.9): 884.2 ± 0.5 kg/m3
- mass density ([3]; x2 = 0.95): 889.1 ± 0.4 kg/m3

Compound: CCC(C)CO (stereo not given) [2-methyl-1-butanol]
- mass density [1]: 814.7 ± 0.6 kg/m3
- speed of sound [1]: 1251.8 ± 1.8 m/s
- Normal boiling temperature [1, 4]: 128.78 ± 0.2 °C
- refractive index [2]: 1.40866 ± 0.00072

Compound: CC(C)CO [2-methyl-1-propanol] + CCOC(C)=O
- mass density ([3]; x2 = 0.049): 802.3 ± 0.6 kg/m3
- mass density ([3]; x2 = 0.101): 806.8 ± 0.6 kg/m3
- mass density ([3]; x2 = 0.153): 811.5 ± 0.6 kg/m3
- mass density ([3]; x2 = 0.202): 816 ± 0.6 kg/m3
- mass density ([3]; x2 = 0.251): 820.6 ± 0.6 kg/m3
- mass density ([3]; x2 = 0.3): 825.2 ± 0.6 kg/m3
- mass density ([3]; x2 = 0.35): 829.9 ± 0.6 kg/m3
- mass density ([3]; x2 = 0.401): 834.7 ± 0.6 kg/m3
- mass density ([3]; x2 = 0.451): 839.5 ± 0.5 kg/m3
- mass density ([3]; x2 = 0.501): 844.3 ± 0.5 kg/m3
- mass density ([3]; x2 = 0.55): 849 ± 0.5 kg/m3
- mass density ([3]; x2 = 0.6): 853.8 ± 0.5 kg/m3
- mass density ([3]; x2 = 0.65): 858.8 ± 0.5 kg/m3
- mass density ([3]; x2 = 0.7): 863.7 ± 0.5 kg/m3
- mass density ([3]; x2 = 0.751): 868.9 ± 0.5 kg/m3
- mass density ([3]; x2 = 0.801): 873.8 ± 0.5 kg/m3
- mass density ([3]; x2 = 0.85): 878.7 ± 0.5 kg/m3
- mass density ([3]; x2 = 0.9): 883.8 ± 0.5 kg/m3
- mass density ([3]; x2 = 0.95): 888.9 ± 0.5 kg/m3
